Laboratory results as given in patent US5053431A, “Derivatives of chrysophanol as topoisomerase II inhibitors” (Sloan-Kettering Institute For Cancer Research, priority 1990, dated 1991).
≈ marks a conversion by molar mass, not a printed value. Read-outs that look alike come from different tables or passages of the source.

Assays:
[1] = test system: mouse leukemia L1210 cells; assay: Inhibition of L1210 cell growth; type: cell-based
Procedure: Preliminary biological data for inhibiting cell growth of murine L1210 leukemic cells and human acute promyelocytic leukemia cells (HL-60) during 72 h of exposure to the compounds are given in Table IV. The potencies for inhibiting [^3 H]TdR incorporation into DNA in HL-60 cells during the initial 30-min period are also given in Table IV. It is interesting to note that 1,8-di-O-methyl derivatives are uniformly devoid of activity against L1210 leukemic cells. […] The B/A ratios allow an indirect estimation of whether or not cytotoxicities exerted by these analogues are primarily due to initial inhibition of DNA synthesis. […] Whether these analogues, like m-AMSA, ellipticine, or anthracyclines, act by inhibiting DNA topoisomerase II remains to be explored. […] Our preliminary experiments indicate that the compounds arrest cells in the S and/or G2 phases of the cell cycle (unpublished results).

[2] = test system: [^3 H]TdR incorporation into DNA in HL-60 cells; assay: Inhibition of [3H]TdR incorporation into DNA in HL-60 cells (initial 30 min); type: cell-based, human; details: for IC50: HL-60, initial 30 min exposure, read-out: ID50, M (HL-60 TdR into DNA (B)); for B/A: ratio of ID50 for TdR incorporation (B) to ID50 for cell growth (A), HL-60
Procedure: For precursor incorporation studies, each compound at four to six concentrations (0.2% DMSO) was preincubated with HL-60 cells (2.5×10^6 /Ml) for 15 min prior to the addition of [^3 H-methyl]TdR (1 μCi, 0.15 nmol/mL) and was incubated for 30 min. […] The incorporation of radioactivity in DNA in the absence of an analogue in the presence of DMSO was used as a control.

[3] = test system: human leukemia HL-60 cells; assay: HL-60 cell growth inhibition (72 h); type: cell-based; details: HL-60, 72 h, read-out: ID50, M [HL-60 cell growth (72 h)] (A)
Procedure: For cell growth inhibition studies, HL-60 cells […]) were grown in RPMI 1640 media at 37° C. in humidified 5% CO2 for 72 h. Viable cells were counted with the trypan blue exclusion method. The fractional inhibitions at four or five concentrations of compounds (in 0.2% DMSO) were analyzed with a median-effect plot (Chou, T.-C., et al., Adv. Enzyme Regul. 22:27 (1984)) by using a computer program. (Chou, J.; Chou, T.-C. Dose-Effect Analyses with Microcomputer. Quantitation of ID50, LD50, Synergism, Antagonism, Low-dose Risk, Receptor-Binding and Enzyme Kinetics; IBM-PC Series, Elsevier-Biosoft, Elsevier Scientific: Cambridge, U.K., (1986)). The median-effect concentration (ID50) was automatically determined for the x intercept of the median-effect plot. Cell growth in the absence of a compound and in the presence of DMSO was used as a control. DMSO (0.2%) alone inhibited cell growth 3.8±1.2% during the 72-h incubation period.

[4] = Mus musculus, Table IV, L1210, 72 h exposure, read-out: ID50, M (L1210 cell growth)
[5] = Mus musculus, L1210, Table I, read-out: ID50 (the source's name)
[6] = Mus musculus, L1210, Table I, read-out: ID50 (μg/mL)
[7] = Table IV, L1210, 72 h exposure, read-out: ID50, M (L1210 cell growth)
[8] = Mus musculus, L1210, Table II, antileukemic activity, read-out: L1210: ID50

Compound | IC50 [1, 4] [µM] | IC50 ([2]; Homo sapiens, 0.5 h) [µM] | IC50 ([3]; Homo sapiens, 0.2% DMSO) [µM] | IC50 [1, 5] [µM] | IC50 [1, 6] [µg/mL] | B/A [2] | also measured
COc1cc(OC)c2c(c1)C(=O)c1cc(C)cc(OC)c1C2=O [IIb, 1,3,8-Trimethoxy-6-methyl-9,10-anthraquinone] | 100 | 21 | 49 |  |  |  | 
CCN(CC)Cc1cc(OC)c2c(c1)C(=O)c1cc(OC)cc(OC)c1C2=O [IXb-1, 3-(N,N-diethylamino)methyl-1,6,8-trimethoxy-9,10-anthraquinone] |  | 4.2 | 7.9 | 6.91 | 2.9 | 0.53 | 
COc1cc(O)c2c(c1)C(=O)c1cc(C(Br)Br)cc(O)c1C2=O [VIIIb, 6-(Dibromomethyl)-3-methoxy-1,8-dihydroxy-9,10-anthraquinone] | 0.001 | 110 | 0.19 |  |  | 579 | 
O=C1c2cccc(O)c2C(=O)c2c(O)cc(C(Br)Br)cc21 [VIIIa, 3-(Dibromomethyl)-1,8-dihydroxy-9,10-anthraquinone] | 0.44 | 39 | 2.5 |  |  | 15.6 | 
Cc1cc(O)c2c(c1)C(=O)c1cc(O)cc(O)c1C2=O [IIb] |  |  |  | > 335 | > 100 |  | 
3-(Bromomethyl)-1(and 8)-Hydroxy-8(and 1)-Methoxy-9,10-anthraquinone [Va] |  |  |  |  |  | 1.7 | IC50 [1, 7]: 8.8 µM; IC50 ([3]; 0.2% DMSO): 7.1 µM
CCCCNCc1cc(O)c2c(c1)C(=O)c1cccc(O)c1C2=O [XIa-10] | 4.6 | 25 | 4.1 |  |  | 6.1 | 
O=C1c2cccc(O)c2C(=O)c2c(O)cc(CNCCCO)cc21 [XIa-11] | 0.67 | 16 | 3.2 |  |  | 5.0 | 
O=C1c2cccc(O)c2C(=O)c2c(O)cc(CN3CCCCC3)cc21 [XIa-14] | 4 | 63 | 2.8 |  |  | 22.5 | 
COc1cccc2c1C(=O)c1c(OC)cc(CBr)cc1C2=O [IIIa, 3-bromomethyl-1,8-dimethoxy-9,10-anthraquinone] | 9.2 | 11 | 4.4 |  |  | 2.5 | 
COc1cc(OC)c2c(c1)C(=O)c1cc(CNCCCl)cc(OC)c1C2=O [IXb-7, 3-[N-(2-chloroethyl)amino]methyl-1,6,8-trimethoxy-9,10-anthraquinone] |  | 18 |  |  |  | 3.1 | IC50 ([1]; Mus musculus, L1210, 72 h, read-out: ID50, M (L1210 cell growth)): 3.2 µM; IC50 ([3]; Homo sapiens): 5.8 µM
O=C1c2cccc(O)c2C(=O)c2c(O)cc(Cn3ccnc3)cc21 [XIa-15] | 7.4 | 43 | 4.8 |  |  | 9.0 | 
COc1cccc2c1C(=O)c1c(OC)cc(C(Br)Br)cc1C2=O [IVa, 3-Dibromomethyl-1,8-dimethoxy-9,10-anthraquinone] | 0.89 | 9 | 2.1 |  |  | 4.3 | 
COc1cccc2c1C(=O)c1c(OC)cc(CN(CCO)CCO)cc1C2=O [IXa-2, 3-[N,N-bis(2-hydroxethyl)amino]methyl-1,8-dimethoxy-9,10-anthraquinone] | > 50 | 14 | 490 | > 49.8 | > 21 | 0.03 | IC50 [1, 8]: > 50 µM
Cc1cc(O)c2c(c1)C(=O)c1cccc(O)c1C2=O [IIa] |  |  |  | > 390 | > 100 |  | 
CN(C)Cc1cc(O)c2c(c1)C(=O)c1cccc(O)c1C2=O [XIa-9] | 2.2 | 9.3 | 2.7 |  |  | 3.3 | 

Compound | IC50 [1, 4] [µM] | IC50 ([2]; Homo sapiens, 0.5 h) [µM] | IC50 ([3]; Homo sapiens, 0.2% DMSO) [µM] | IC50 [1, 5] [µM] | IC50 [1, 6] [µg/mL] | B/A [2] | also measured
CNC(=O)OCCN(CCOC(=O)NC)Cc1cc(O)c2c(c1)C(=O)c1cccc(O)c1C2=O [XIa-4] | > 18 | 28 | 210 |  |  | 0.13 | 
6-(Dibromomethyl)-1-(and 8)-hydroxy-3,8(and) 1,3)-dimethoxy-9,10-anthraquinone [VIIb] |  |  |  |  |  | 237 | IC50 [1, 7]: 0.001 µM; IC50 [2]: 23 µM; IC50 ([3]; 0.2% DMSO): 0.097 µM
COc1cccc2c1C(=O)c1c(OC)cc(C)cc1C2=O [IIa, 1,8-Dimethoxy-3-methyl-9,10-anthraquinone] | 28 | 19 | 10 |  |  |  | 
CCNCc1cc(O)c2c(c1)C(=O)c1cccc(O)c1C2=O [XIa-5, 3-[N-ethylamino)methyl-1,8-dihydroxy-9,10-anthraquinone] |  | 18 | 8.7 | 0.77 | 0.26 | 2.1 | 
CCN(CC)Cc1cc(O)c2c(c1)C(=O)c1cc(OC)cc(O)c1C2=O [XIb-1, 3-(N,N-diethylamino)methyl-1,8-dihydroxy-6-methoxy-9,10-anthraquinone] | 1.2 | 35 | 3.4 | 1.16 | 0.51 | 10.3 | 
COc1cccc2c1C(=O)c1c(OC)cc(CNCCO)cc1C2=O [IXa-6, 3-[N-(2-hydroxyethyl)amino]methyl-1,8-dimethoxy-9,10-anthraquinone] | 140 | 46 | 55 | 142 | 53.7 | 0.84 | 
CCN(CC)Cc1cc(OC)c2c(c1)C(=O)c1cccc(OC)c1C2=O [IXa-1, 3-[(Diethylamino)methyl]-1,8-dimethoxy-9,10-anthraquinone] | 130 | 19 | 30 | 128 | 52.3 | 6.3 | 
COc1cc(O)c2c(c1)C(=O)c1cc(CBr)cc(O)c1C2=O [VIb, 3-bromomethyl-1,8-dihydroxy-6-methoxy-9,10-anthraquinone] | 59 | 340 | 25 |  |  | 13.6 | 
CCNCc1cc(OC)c2c(c1)C(=O)c1cc(OC)cc(OC)c1C2=O [IXb-5, 3-(N-ethylamino)methyl-1,6,8-trimethoxy-9,10-anthraquinone] | 9.8 | 13 | 17 | 3.67 | 1.44 | 0.76 | 
COc1cc(OC)c2c(c1)C(=O)c1cc(CBr)cc(OC)c1C2=O [IIIb, 3-bromomethyl-1,6,8-trimethoxy-9,10-anthraquinone] | 0.68 | 12 | 84 |  |  | 0.14 | 
COc1cc(OC)c2c(c1)C(=O)c1cc(CN(CCO)CCO)cc(OC)c1C2=O [IXb-2, 3-[N,N-bis(2-hydroxethyl)amino]methyl-1,6,8-trimethoxy-9,10-anthraquinone] | > 27 | 17 | 100 | 27.7 | 12.5 | 0.17 | IC50 [1, 8]: > 27.6 µM
COc1cccc2c1C(=O)c1c(OC)cc(CN(CCCl)CCCl)cc1C2=O [IXa-3, 3-[N,N-bis(2-chloroethyl)amino]methyl-1,8-dimethoxy-9,10-anthraquinone] |  |  |  |  |  | 7.8 | ID50 ([1]; Table I): 5.73 mg/L (≈ 13.6 µM); IC50 ([1]; Table I, read-out: ID50 (the source's name)): 12.5 µM; IC50 [1, 7]: 13 µM; IC50 [2]: 14 µM
O=C1c2cccc(O)c2C(=O)c2c(O)cc(CBr)cc21 [VIa, 3-bromomethyl-1,8-dihydroxy-9,10-anthraquinone] | 8.6 | 16 | 7.1 |  |  | 2.3 | 
CNC(=O)OCCN(CCOC(=O)NC)Cc1cc(OC)c2c(c1)C(=O)c1cccc(OC)c1C2=O [IXa-4] | 72 | 9.4 | 9.5 |  |  | 0.99 | 
CC(C)NC(=O)OCCN(CCOC(=O)NC(C)C)Cc1cc(O)c2c(c1)C(=O)c1cccc(O)c1C2=O [XIa-12] | 27 | 17 | 27 |  |  | 0.63 | 
